Calls of active or inactive are those of the source. The calls are words filed in the database; no cut-off is given here.
Tests used:
[1] = target: T1, Protein cereblon/ALK tyrosine kinase receptor (Homo sapiens, UniProt Q9UM73+Q96SW2); assay: Protac activity at CRBN/ALK in human SR cells assessed as protein abundance at 500 nM by Western blot analysis (reference value: 1); type: cell-based
Target sequence in this assay (Q96SW2 whole entry partner): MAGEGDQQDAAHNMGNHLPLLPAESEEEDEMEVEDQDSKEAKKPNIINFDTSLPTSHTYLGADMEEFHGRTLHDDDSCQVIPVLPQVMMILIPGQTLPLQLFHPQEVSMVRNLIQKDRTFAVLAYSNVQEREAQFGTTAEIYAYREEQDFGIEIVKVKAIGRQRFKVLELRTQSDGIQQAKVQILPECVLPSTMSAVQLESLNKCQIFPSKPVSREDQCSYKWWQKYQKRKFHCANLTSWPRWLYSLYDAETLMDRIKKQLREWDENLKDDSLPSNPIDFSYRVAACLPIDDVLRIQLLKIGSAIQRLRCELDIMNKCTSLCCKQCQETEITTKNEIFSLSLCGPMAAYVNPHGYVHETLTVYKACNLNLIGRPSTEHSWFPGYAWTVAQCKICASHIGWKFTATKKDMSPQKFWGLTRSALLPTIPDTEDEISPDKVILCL
Target sequence in this assay (Q9UM73 19-1620 limits assumed): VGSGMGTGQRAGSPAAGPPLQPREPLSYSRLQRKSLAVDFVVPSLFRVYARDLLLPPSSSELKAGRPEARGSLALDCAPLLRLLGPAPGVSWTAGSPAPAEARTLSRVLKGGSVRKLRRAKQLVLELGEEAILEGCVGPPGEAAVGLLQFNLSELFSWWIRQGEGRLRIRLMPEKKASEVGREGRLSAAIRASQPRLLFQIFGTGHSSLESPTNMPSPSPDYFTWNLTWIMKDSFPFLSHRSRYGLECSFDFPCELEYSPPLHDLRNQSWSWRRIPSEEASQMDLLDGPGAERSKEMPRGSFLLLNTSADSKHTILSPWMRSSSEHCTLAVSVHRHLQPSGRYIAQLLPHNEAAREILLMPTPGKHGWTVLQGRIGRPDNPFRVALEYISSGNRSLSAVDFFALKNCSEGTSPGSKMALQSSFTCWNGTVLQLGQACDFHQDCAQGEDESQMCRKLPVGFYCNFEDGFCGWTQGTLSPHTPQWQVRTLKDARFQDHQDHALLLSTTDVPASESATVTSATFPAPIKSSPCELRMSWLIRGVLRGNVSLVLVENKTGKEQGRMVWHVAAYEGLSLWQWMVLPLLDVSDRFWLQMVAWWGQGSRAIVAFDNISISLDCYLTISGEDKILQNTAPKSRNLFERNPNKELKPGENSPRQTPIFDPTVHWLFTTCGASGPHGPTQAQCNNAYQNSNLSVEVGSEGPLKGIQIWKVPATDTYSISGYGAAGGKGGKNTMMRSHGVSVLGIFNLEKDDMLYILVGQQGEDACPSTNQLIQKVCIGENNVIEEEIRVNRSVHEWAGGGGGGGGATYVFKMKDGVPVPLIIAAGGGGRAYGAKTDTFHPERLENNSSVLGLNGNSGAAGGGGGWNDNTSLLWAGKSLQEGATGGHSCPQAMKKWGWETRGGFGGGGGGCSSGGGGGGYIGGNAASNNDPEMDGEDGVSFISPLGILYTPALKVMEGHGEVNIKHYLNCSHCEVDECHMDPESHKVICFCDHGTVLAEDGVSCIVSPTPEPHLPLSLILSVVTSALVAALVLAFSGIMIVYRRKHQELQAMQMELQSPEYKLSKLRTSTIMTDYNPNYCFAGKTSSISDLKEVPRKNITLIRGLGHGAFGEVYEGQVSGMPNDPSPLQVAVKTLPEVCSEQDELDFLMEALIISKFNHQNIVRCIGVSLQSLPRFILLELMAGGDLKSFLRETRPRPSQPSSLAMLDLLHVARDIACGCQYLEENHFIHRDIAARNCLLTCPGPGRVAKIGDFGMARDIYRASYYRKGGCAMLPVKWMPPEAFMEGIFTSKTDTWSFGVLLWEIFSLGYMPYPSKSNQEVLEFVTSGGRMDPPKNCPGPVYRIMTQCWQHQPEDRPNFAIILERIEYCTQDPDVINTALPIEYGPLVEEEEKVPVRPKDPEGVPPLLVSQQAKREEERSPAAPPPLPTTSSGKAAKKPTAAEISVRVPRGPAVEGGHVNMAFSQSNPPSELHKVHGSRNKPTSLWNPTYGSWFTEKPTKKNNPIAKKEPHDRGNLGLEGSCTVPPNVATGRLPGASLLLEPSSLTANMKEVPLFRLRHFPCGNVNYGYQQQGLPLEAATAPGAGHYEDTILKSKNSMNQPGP

[2] = target: T1, Protein cereblon/ALK tyrosine kinase receptor; assay: Protac activity at CRBN/ALK in human SR cells assessed as induction of ALK degradation at 0.05 to 500 nM by Western blot analysis relative to control; type: cell-based; details: dose 0.05-500 nM
Target sequence in this assay (Q96SW2 whole entry partner): as the sequence (Q96SW2 whole entry partner) above
Target sequence in this assay (Q9UM73 19-1620 limits assumed): as the sequence (Q9UM73 19-1620 limits assumed) above

[3] = target: T2, ALK tyrosine kinase receptor (Homo sapiens, UniProt Q9UM73); assay: Inhibition of ALK phosphorylation in human SR cells at 0.5 nM; type: cell-based
Target sequence in this assay (Q9UM73 19-1620 limits assumed): as above

[4] = target: T1, Protein cereblon/ALK tyrosine kinase receptor; assay: Protac activity at CRBN/ALK in human SR cells assessed as increase in ALK degradation at 50 nM in presence of MLN4924/MG132 by Western blot analysis; type: cell-based
Target sequence in this assay (Q96SW2 whole entry partner): as the sequence (Q96SW2 whole entry partner) above
Target sequence in this assay (Q9UM73 19-1620 limits assumed): as the sequence (Q9UM73 19-1620 limits assumed) above

[5] = target: T2, ALK tyrosine kinase receptor; assay: Inhibition of ALK (unknown origin)
Target sequence in this assay (Q9UM73 whole entry): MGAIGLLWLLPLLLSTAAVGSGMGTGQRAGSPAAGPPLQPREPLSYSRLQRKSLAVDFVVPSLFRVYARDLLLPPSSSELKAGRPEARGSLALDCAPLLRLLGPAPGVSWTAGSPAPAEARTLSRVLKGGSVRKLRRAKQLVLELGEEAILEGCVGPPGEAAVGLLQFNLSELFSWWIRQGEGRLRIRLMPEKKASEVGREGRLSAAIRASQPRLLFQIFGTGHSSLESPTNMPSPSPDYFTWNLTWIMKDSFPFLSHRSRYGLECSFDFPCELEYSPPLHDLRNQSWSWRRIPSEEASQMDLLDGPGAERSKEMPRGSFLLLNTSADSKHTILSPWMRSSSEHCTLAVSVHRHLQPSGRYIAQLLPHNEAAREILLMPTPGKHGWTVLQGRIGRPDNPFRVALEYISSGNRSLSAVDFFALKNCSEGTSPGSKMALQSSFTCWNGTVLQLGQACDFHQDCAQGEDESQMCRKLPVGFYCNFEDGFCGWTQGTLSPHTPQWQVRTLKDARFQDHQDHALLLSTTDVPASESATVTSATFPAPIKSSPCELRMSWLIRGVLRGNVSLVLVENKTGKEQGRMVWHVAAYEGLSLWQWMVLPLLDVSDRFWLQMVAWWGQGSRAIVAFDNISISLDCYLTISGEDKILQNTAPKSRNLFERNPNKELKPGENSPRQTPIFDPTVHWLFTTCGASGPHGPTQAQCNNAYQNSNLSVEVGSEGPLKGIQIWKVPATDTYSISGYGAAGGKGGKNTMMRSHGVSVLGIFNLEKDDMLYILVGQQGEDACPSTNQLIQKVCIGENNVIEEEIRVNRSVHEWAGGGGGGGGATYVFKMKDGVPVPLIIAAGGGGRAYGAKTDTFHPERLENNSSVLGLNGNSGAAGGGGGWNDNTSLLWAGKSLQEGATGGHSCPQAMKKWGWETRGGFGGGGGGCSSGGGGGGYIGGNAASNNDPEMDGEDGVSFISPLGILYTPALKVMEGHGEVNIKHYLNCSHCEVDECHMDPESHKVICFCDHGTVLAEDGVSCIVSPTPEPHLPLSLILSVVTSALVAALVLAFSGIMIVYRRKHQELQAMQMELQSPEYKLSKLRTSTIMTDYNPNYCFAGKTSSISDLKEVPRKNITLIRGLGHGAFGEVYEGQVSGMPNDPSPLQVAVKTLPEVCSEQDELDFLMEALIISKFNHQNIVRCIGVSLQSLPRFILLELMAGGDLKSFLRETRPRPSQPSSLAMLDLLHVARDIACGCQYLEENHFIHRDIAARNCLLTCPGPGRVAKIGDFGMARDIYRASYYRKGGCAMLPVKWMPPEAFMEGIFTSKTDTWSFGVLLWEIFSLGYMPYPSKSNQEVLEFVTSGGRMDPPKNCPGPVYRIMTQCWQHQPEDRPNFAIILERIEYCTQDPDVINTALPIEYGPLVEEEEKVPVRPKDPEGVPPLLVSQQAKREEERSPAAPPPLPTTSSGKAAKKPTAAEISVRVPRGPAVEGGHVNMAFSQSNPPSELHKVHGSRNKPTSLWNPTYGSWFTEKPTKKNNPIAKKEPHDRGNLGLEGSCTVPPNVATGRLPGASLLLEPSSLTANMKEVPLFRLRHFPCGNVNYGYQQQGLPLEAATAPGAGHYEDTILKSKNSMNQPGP

SR [6] = assay: Potency index, ratio of ceritinib IC50 to test compound IC50 for antiproliferative activity against ALK positive human SR cells; type: functional
[7] = target: T1, Protein cereblon/ALK tyrosine kinase receptor; assay: Protac activity at CRBN/ALK in human SR cells assessed as protein abundance at 5 nM by Western blot analysis (reference value: 1); type: cell-based
Target sequence in this assay (Q96SW2 whole entry partner): as the sequence (Q96SW2 whole entry partner) above
Target sequence in this assay (Q9UM73 19-1620 limits assumed): as the sequence (Q9UM73 19-1620 limits assumed) above

[8] = target: T1, Protein cereblon/ALK tyrosine kinase receptor; assay: Protac activity at CRBN/ALK in human SR cells assessed as increase in ALK degradation at 50 nM in presence of MG132 by Western blot analysis; type: cell-based
Target sequence in this assay (Q96SW2 whole entry partner): as the sequence (Q96SW2 whole entry partner) above
Target sequence in this assay (Q9UM73 19-1620 limits assumed): as the sequence (Q9UM73 19-1620 limits assumed) above

[9] = target: T1, Protein cereblon/ALK tyrosine kinase receptor; assay: Protac activity at CRBN/ALK in human SR cells assessed as protein abundance at 0.05 nM by Western blot analysis (reference value: 1); type: cell-based
Target sequence in this assay (Q96SW2 whole entry partner): as the sequence (Q96SW2 whole entry partner) above
Target sequence in this assay (Q9UM73 19-1620 limits assumed): as the sequence (Q9UM73 19-1620 limits assumed) above

[10] = target: T1, Protein cereblon/ALK tyrosine kinase receptor; assay: Protac activity at CRBN/ALK in human SR cells assessed as induction of ALK degradation by Western blot analysis; type: cell-based
Target sequence in this assay (Q9UM73 whole entry): as the sequence (Q9UM73 whole entry) above
Target sequence in this assay (Q96SW2 whole entry): as the sequence (Q96SW2 whole entry partner) above

[11] = Stability in liver microsomes (unknown origin); type: ADME, Microsome
SR [12] = assay: Induction of cell cycle arrest in human SR cells assessed as increase in accumulation at G1/S phase at 100 nM incubated for 24 hrs; type: functional, cell-based
SR [13] = assay: Antiproliferative activity against ALK positive human SR cells; type: functional, cell-based
[14] = target: T1, Protein cereblon/ALK tyrosine kinase receptor; assay: Protac activity at CRBN/ALK in human SR cells assessed as protein abundance at 0.5 nM by Western blot analysis (reference value: 1); type: cell-based
[15] = target: T1, Protein cereblon/ALK tyrosine kinase receptor; assay: Protac activity at CRBN/ALK in human SR cells assessed as protein abundance at 50 nM by Western blot analysis (reference value: 1); type: cell-based
[16] = Oral bioavailability in rat at 10 mg/kg; type: ADME, organism-based; details: in vivo
[17] = Toxicity in rat at 10 mg/kg, po assessed as adverse effect; type: organism-based; details: in vivo
[18] = Cmax in rat at 2 mg/kg, ip; type: ADME, organism-based; set-up: route intraperitoneal, dose 2 mg/kg; details: in vivo
[19] = Plasma concentration in rat at 10 mg/kg, po measured after 4 hrs; type: ADME, organism-based
[20] = target: T1, Protein cereblon/ALK tyrosine kinase receptor; assay: Protac activity at CRBN/ALK in human SR cells assessed as increase in ALK degradation at 500 nM by Western blot analysis; type: cell-based
[21] = target: T2, ALK tyrosine kinase receptor; assay: Inhibition of ALK in human SR cells assessed as reduction in STAT3 phosphorylation at 50 nM; type: cell-based
Target sequence in this assay (Q9UM73 19-1620 limits assumed): as the sequence (Q9UM73 19-1620 limits assumed) above

SR [22] = assay: Induction of cell cycle arrest in human SR cells assessed as increase in accumulation at S phase at 100 nM incubated for 24 hrs; type: functional, cell-based

Activity [1]: 0.37
Emax [2]: 70.3%
inhibition [3]: Active
Activity [4]: inactive
IC50 [5]: 3.3 nM
Activity [7]: 0.56
Activity [8]: inactive
Activity [9]: 1.03
DC50 [10]: 3900 nM
Stabilty [11]: Stable
Activity [14]: 0.92
Activity [15]: 0.37
bioavailability [16]: 16%
Cmax [18]: 83.5 ng/mL
concentration at 4 h [19]: 100 ng/mL
Activity [20]: Active
inhibition [21]: Active
Compound: CCc1cc2c(cc1N1CCC(N3CCN(CCCC#Cc4cccc5c4CN(C4CCC(=O)NC4=O)C5=O)CC3)CC1)C(C)(C)c1[nH]c3cc(C#N)ccc3c1C2=O (configuration not stated)
Ratio (SR [6]): 5
Activity (SR [12]): Active
IC50 (SR [13]): 0.9 nM
Activity [17]: Non-Toxic
Activity (SR [22]): inactive
